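Step 1: Grow cells in 96-well plates. Step 2: Expose to compound for 48 hours at 5 concentrations. Step 3: Interpolate endpoints linearly; if unreached, use highest concentration. TGI marks complete inhibition of growth.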
Tests used:
Assay in all cases: DTP human tumour cell line panel, 48 h
SNB-19 CNS = system: SNB-19 CNS
KM12 colon = system: KM12 colon
SW-620 colon = system: SW-620 colon
COLO 205 colon = system: COLO 205 colon
LOX IMVI melanoma = system: LOX IMVI melanoma
RPMI-8226 leukemia = system: RPMI-8226 leukemia
NCI-H522 lung = system: NCI-H522 lung
NCI-H23 lung = system: NCI-H23 lung
RXF 393 renal = system: RXF 393 renal
HCT-15 colon = system: HCT-15 colon
SR leukemia = system: SR leukemia
SK-MEL-2 melanoma = system: SK-MEL-2 melanoma
MDA-MB-435 = system: MDA-MB-435
HOP-92 NSCLC = system: HOP-92 NSCLC
PC-3 prostate = system: PC-3 prostate
SK-MEL-5 melanoma = system: SK-MEL-5 melanoma
U251 CNS = system: U251 CNS
HL-60(TB) leukemia = system: HL-60(TB) leukemia
A498 renal = system: A498 renal

SMILES	TGI (SNB-19 CNS)	TGI (KM12 colon)	TGI (SW-620 colon)	TGI (COLO 205 colon)	TGI (LOX IMVI melanoma)	TGI (RPMI-8226 leukemia)	TGI (NCI-H522 lung)	TGI (NCI-H23 lung)	TGI (RXF 393 renal)	TGI (HCT-15 colon)	TGI (SR leukemia)	TGI (SK-MEL-2 melanoma)	TGI (MDA-MB-435)	TGI (HOP-92 NSCLC)	TGI (PC-3 prostate)	TGI (SK-MEL-5 melanoma)	TGI (U251 CNS)	TGI (HL-60(TB) leukemia)	TGI (A498 renal)
CC(NCc1c(O)ccc2ccc(=O)oc12)C(=O)O (stereo not drawn)	> 100 µM	> 100 µM	> 100 µM	> 100 µM	> 100 µM	> 100 µM	> 100 µM	> 100 µM	> 100 µM	> 100 µM	> 100 µM	> 100 µM	> 100 µM	> 100 µM	> 100 µM	> 100 µM	> 100 µM	> 100 µM	–
COc1ccc2nc3c([N+](=O)[O-])ccc4c3c(c2c1)NCCN4CCN(C)C	2.27 µM	1.46 µM	1.98 µM	–	1.45 µM	4.62 µM	–	2.86 µM	2.38 µM	1.94 µM	7.24 µM	2.92 µM	3.49 µM	2.73 µM	1.86 µM	2.08 µM	2.54 µM	–	3.12 µM
CCOC(=O)c1ccc(C(=O)n2ccnc2)[nH]1	> 100 µM	> 100 µM	> 100 µM	> 100 µM	> 100 µM	> 100 µM	> 100 µM	> 100 µM	> 100 µM	> 100 µM	> 100 µM	> 100 µM	> 100 µM	–	> 100 µM	> 100 µM	> 100 µM	> 100 µM	> 100 µM
Cc1cc(=O)oc2c(CNC(CO)C(=O)O)c(O)ccc12 (stereo not drawn)	> 100 µM	> 100 µM	> 100 µM	> 100 µM	> 100 µM	> 100 µM	> 100 µM	> 100 µM	> 100 µM	> 100 µM	> 100 µM	> 100 µM	> 100 µM	> 100 µM	> 100 µM	> 100 µM	> 100 µM	> 100 µM	–
CCCC1CC(=O)NC(=O)C1C(=O)OC(C)(C)C (stereo not drawn)	> 100 µM	> 100 µM	> 100 µM	> 100 µM	> 100 µM	> 100 µM	> 100 µM	> 100 µM	> 100 µM	> 100 µM	> 100 µM	> 100 µM	> 100 µM	–	> 100 µM	> 100 µM	> 100 µM	> 100 µM	> 100 µM
CON(C)C(=O)[C@H]1C[C@@]1(C)CO	> 100 µM	> 100 µM	> 100 µM	> 100 µM	–	–	–	> 100 µM	> 100 µM	> 100 µM	> 100 µM	> 100 µM	> 100 µM	> 100 µM	> 100 µM	> 100 µM	> 100 µM	–	> 100 µM
CC(=O)OCC1OC(c2c(OC(C)=O)cc(C)c3c(=O)cc(/C(C(C)=O)=C(\C)O)oc23)C(OC(C)=O)C(OC(C)=O)C1OC(C)=O (stereo not drawn)	> 100 µM	> 100 µM	> 100 µM	> 100 µM	–	> 100 µM	> 100 µM	> 100 µM	> 100 µM	> 100 µM	> 100 µM	> 100 µM	> 100 µM	> 100 µM	> 100 µM	> 100 µM	> 100 µM	> 100 µM	–
COc1ccc2c(=O)cc(-c3ccc(OC)c(OC)c3OC)oc2c1	> 100 µM	> 85.7 µM	> 100 µM	> 100 µM	> 100 µM	53.9 µM	> 100 µM	> 100 µM	> 100 µM	> 100 µM	> 100 µM	–	> 100 µM	> 100 µM	> 100 µM	> 100 µM	> 100 µM	> 62.4 µM	–
O=C(O)C1(Cc2ccccc2)Cc2cc3c(cc2C1)CCC3	> 100 µM	> 100 µM	> 100 µM	> 100 µM	> 100 µM	> 100 µM	> 100 µM	> 100 µM	> 100 µM	> 100 µM	> 100 µM	> 100 µM	> 100 µM	94 µM	> 100 µM	> 100 µM	> 100 µM	> 100 µM	–
Cc1c2c(nc3ccccc13)C(=O)c1cccnc1C2=O	92.3 µM	> 100 µM	> 100 µM	48.7 µM	35.2 µM	> 100 µM	47.8 µM	73.1 µM	> 100 µM	> 100 µM	65.6 µM	–	3.2 µM	> 100 µM	73.1 µM	1.48 µM	> 100 µM	41.4 µM	–
N#CC1=C2SCCN2C(=O)C(C#N)C12CCCCC2 (stereo not drawn)	> 100 µM	> 100 µM	> 100 µM	> 100 µM	> 100 µM	> 100 µM	> 100 µM	> 100 µM	> 100 µM	> 100 µM	> 100 µM	> 100 µM	> 100 µM	> 100 µM	> 100 µM	> 100 µM	> 100 µM	–	> 100 µM
CC12CCC(=O)N1c1cncnc1N2 (stereo not drawn)	> 10 µM	> 10 µM	> 10 µM	–	> 10 µM	–	> 10 µM	> 10 µM	–	> 10 µM	> 10 µM	> 10 µM	> 10 µM	> 10 µM	> 10 µM	–	> 10 µM	> 10 µM	–
CCOC(=O)Cn1c2ccc(Br)cc2c2nc3ccccc3nc21	> 100 µM	> 100 µM	> 100 µM	> 100 µM	> 100 µM	> 100 µM	–	> 100 µM	> 100 µM	–	> 100 µM	> 100 µM	> 100 µM	> 100 µM	> 100 µM	> 100 µM	> 100 µM	–	> 100 µM
CC(=O)O[C@H]1CC[C@H]2[C@@H]3CCC4=CC(=O)C=C[C@]4(O)[C@H]3CC[C@]12C	> 100 µM	52.8 µM	> 57.5 µM	> 55.6 µM	> 54.4 µM	44.3 µM	–	> 62.4 µM	76 µM	> 100 µM	5.1 µM	> 73.4 µM	49.5 µM	92.3 µM	> 93.1 µM	23.4 µM	> 100 µM	–	> 100 µM
O=C(NNC1=NCCCN1)c1ccco1	> 100 µM	> 100 µM	> 100 µM	> 100 µM	> 100 µM	> 100 µM	> 100 µM	> 100 µM	> 100 µM	> 100 µM	> 100 µM	> 100 µM	> 100 µM	> 100 µM	> 100 µM	> 100 µM	> 100 µM	> 100 µM	–
COc1cc2c(c(O)c1OC)C(=O)[C@@H]1CCC(=O)N1C2c1ccccc1 (stereo partly drawn)	> 100 µM	> 100 µM	> 100 µM	> 100 µM	> 100 µM	> 100 µM	> 100 µM	> 100 µM	–	> 100 µM	> 100 µM	> 100 µM	> 100 µM	–	> 100 µM	–	> 100 µM	> 100 µM	> 100 µM
Oc1[nH]c(=S)[nH]c1/C=C1/C(c2ccccc2)=Nc2ccccc21	76.3 µM	29.3 µM	31.9 µM	31.8 µM	24.3 µM	36.2 µM	26.3 µM	29 µM	28.7 µM	31.2 µM	27.9 µM	26 µM	26.7 µM	–	25.6 µM	25.8 µM	34.9 µM	26.1 µM	25.3 µM
COc1ccc2c(C)c(Oc3c(Cl)c(Cl)c(O)c(C#N)c3C#N)oc2c1	> 100 µM	> 100 µM	> 100 µM	> 100 µM	> 100 µM	> 100 µM	> 100 µM	> 100 µM	–	> 100 µM	> 100 µM	> 100 µM	> 100 µM	–	> 100 µM	> 100 µM	> 100 µM	> 100 µM	> 100 µM
O=C1C2CCCCC2C(=O)N1n1c(-c2ccccc2)n[nH]c1=O (stereo not drawn)	> 100 µM	> 100 µM	> 100 µM	> 100 µM	> 100 µM	> 100 µM	> 100 µM	> 100 µM	> 100 µM	> 100 µM	> 100 µM	> 100 µM	> 100 µM	> 100 µM	> 100 µM	> 100 µM	> 100 µM	–	> 100 µM
COC(=O)c1cc(=O)n(-c2ccc3nn(C)nc3c2)cc1C(=O)OC	> 100 µM	> 100 µM	> 100 µM	> 100 µM	–	> 100 µM	> 100 µM	> 100 µM	> 100 µM	> 100 µM	> 100 µM	> 100 µM	> 100 µM	> 100 µM	> 100 µM	> 100 µM	> 100 µM	–	> 100 µM
CNC(=O)C1(C#N)C(c2ccccc2)C(C#N)(C(=O)NC)C1c1ccccc1 (stereo not drawn)	> 100 µM	> 100 µM	> 100 µM	> 100 µM	> 100 µM	> 100 µM	> 100 µM	> 100 µM	–	> 100 µM	> 100 µM	> 100 µM	> 100 µM	> 100 µM	> 100 µM	> 100 µM	> 100 µM	–	> 100 µM

From PubChem BioAssay (NCI)
